Laboratory results from ChEMBL document CHEMBL2203135, “Novel progesterone receptor modulators: 4-aryl-phenylsulfonamides” (Bioorg Med Chem Lett, 2012).

Tests used:
Progesterone receptor = target: T1, Progesterone receptor (Homo sapiens, UniProt P06401); assay: Antagonist activity against progesterone receptor in human T47D cells by alkaline phosphatase assay; type: functional, cell-based
T1 sequence (P06401 whole entry): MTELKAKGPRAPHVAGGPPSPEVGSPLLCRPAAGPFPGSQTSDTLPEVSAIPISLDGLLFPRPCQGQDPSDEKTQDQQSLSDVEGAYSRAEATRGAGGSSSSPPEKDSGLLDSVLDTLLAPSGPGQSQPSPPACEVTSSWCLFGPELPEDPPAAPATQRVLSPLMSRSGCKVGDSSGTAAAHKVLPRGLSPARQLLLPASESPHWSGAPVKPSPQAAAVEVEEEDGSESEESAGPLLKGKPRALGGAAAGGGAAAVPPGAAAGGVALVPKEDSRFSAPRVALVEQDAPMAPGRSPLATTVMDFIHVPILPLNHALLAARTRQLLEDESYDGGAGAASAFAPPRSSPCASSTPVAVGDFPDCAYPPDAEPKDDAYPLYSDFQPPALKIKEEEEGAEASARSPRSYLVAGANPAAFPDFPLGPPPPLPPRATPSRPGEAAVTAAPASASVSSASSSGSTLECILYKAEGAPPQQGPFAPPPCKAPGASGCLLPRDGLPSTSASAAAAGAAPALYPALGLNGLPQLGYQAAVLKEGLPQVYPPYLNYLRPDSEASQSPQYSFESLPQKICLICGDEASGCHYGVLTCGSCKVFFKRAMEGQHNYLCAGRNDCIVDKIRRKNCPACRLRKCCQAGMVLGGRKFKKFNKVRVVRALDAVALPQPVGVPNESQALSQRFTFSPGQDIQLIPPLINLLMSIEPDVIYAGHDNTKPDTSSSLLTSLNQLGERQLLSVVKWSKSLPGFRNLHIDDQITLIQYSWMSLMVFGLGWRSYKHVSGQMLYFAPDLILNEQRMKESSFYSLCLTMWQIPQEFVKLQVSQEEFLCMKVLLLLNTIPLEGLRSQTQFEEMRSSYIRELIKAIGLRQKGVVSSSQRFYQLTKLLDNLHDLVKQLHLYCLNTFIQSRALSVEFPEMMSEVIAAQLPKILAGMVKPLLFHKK

[1] = Half life in rat at 20 mg/kg, po administered as single dose; type: ADME, organism-based; parameters: dose 20 mg/kg, route oral; settings: in vivo
[2] = Cmax in rat at 20 mg/kg, po administered as single dose; type: ADME, organism-based; parameters: dose 20 mg/kg, route oral; settings: in vivo
Salmonella typhimurium [3] = assay: Mutagenicity in Salmonella typhimurium in absence of liver S9 fraction by non-GLP Ames test; type: toxicity, organism-based; settings: salmonella enterica subsp. enterica serovar typhimurium
[4] = AUC (0 to infinity) in rat at 20 mg/kg, po administered as single dose; type: ADME, organism-based; parameters: time infinity, dose 20 mg/kg, route oral; settings: plasma
Salmonella typhimurium [5] = assay: Mutagenicity in Salmonella typhimurium in presence of liver S9 fraction by non-GLP Ames test; type: toxicity, organism-based; settings: salmonella enterica subsp. enterica serovar typhimurium
[6] = target: T2, Progesterone receptor (Homo sapiens) (UniProt P06401); assay: Antagonist activity against progesterone receptor in human T47D cells at 3 uM by alkaline phosphatase assay; type: functional, cell-based
T2 sequence (whole entry): T1 sequence (P06401 whole entry)

| IC50 (Progesterone receptor) [nM] | SMILES | Activity (Salmonella typhimurium [5]) | further results |
| --- | --- | --- | --- |
| 10 | CCCS(=O)(=O)Nc1ccc(-c2ccc(C#N)n2C)cc1 |  |  |
| 9 | CCS(=O)(=O)Nc1ccc(-c2ccc(C#N)n2C)cc1 | Toxic | half-life [1]: 2.5 h; Cmax [2]: 6.7 µM; Activity (Salmonella typhimurium [3]): Non-toxic; AUC(0-inf) [4]: 12300 ng·h/mL |
| 8 | Cn1c(C#N)ccc1-c1ccc(NS(C)(=O)=O)cc1F | Non-toxic | Activity (Salmonella typhimurium [3]): Non-toxic |
| 75 | CC(=O)Nc1ccc(-c2ccc(C#N)n2C)cc1 |  | half-life [1]: 5 h; Cmax [2]: 0.7 µM; AUC(0-inf) [4]: 1640 ng·h/mL |

Continued, compound first:

| SMILES | IC50 (Progesterone receptor) [nM] | Activity (Salmonella typhimurium [5]) | further results |
| --- | --- | --- | --- |
| Cn1c(C#N)ccc1-c1ccc(NS(C)(=O)=O)c(C#N)c1 | > 3000 |  |  |
| CCS(=O)(=O)Nc1ccc(-c2ccc(C#N)n2C)c(C#N)c1 | 128 |  |  |
| Cc1ccc(S(=O)(=O)Nc2ccc(-c3ccc(C#N)n3C)cc2)cc1 |  |  | inhibition [6]: 55% |
| Cn1c(C#N)ccc1-c1ccc(NS(C)(=O)=O)cc1 | 8 |  |  |
| CC(C)c1ccc(S(=O)(=O)Nc2ccc(-c3ccc(C#N)n3C)cc2)cc1 |  |  | inhibition [6]: 54% |
| CCS(=O)(=O)Nc1cc(F)c(-c2ccc(C#N)n2C)cc1F | 57 |  |  |
| Cn1c(C#N)ccc1-c1ccc(N)cc1 |  | Toxic | half-life [1]: 2.5 h; Cmax [2]: 3.2 µM; AUC(0-inf) [4]: 3080 ng·h/mL |
| CCS(=O)(=O)Nc1ccc(-c2ccc(C#N)n2C)c(C(F)(F)F)c1 | 12 | Non-toxic |  |
| CCS(=O)(=O)Nc1ccc(-c2ccc(C#N)n2C)c(F)c1 | 6 |  |  |
